# Results reported in patent US20030045524A1, “Alpha-2-adrenergic agonist/fatty acid compositions” (priority 2001, published 2003).
# Where two headings read alike, the source gives them in different places.
# Columns and labels:
# Intra Ocular Pressure = settings: ion pair formulation of 0.131% bromonidine and 0.126% linoleic acid
# Excerpt: The complex is an ion pair formulation of 0.131% bromonidine and 0.126% linoleic acid.
# [1] = test system: Rabbit Intraocular Pressure; settings: 0.2% complex; for INTRAOCULAR PRESSURE: mean, n=8
# Experimental: In this study, the animals were placed into three groups consisting of a mix of age, size and sex.
# One group of animals (both sexes) was used per screening study. The test compound (20 L of 0.2% bromonidine-linoleic acid ion pair complex) was administered to the surface of the cornea using an automatic pipette or an appropriate device.
# The following general procedure for administering the test compound employed in this study is presented below:
# 1. Make sure that the 0.25% proparacaine Opthetic5 mixture (topical local anesthetic), test compounds, and commercially available treats are available.
# 2. Turn on the Digilab Modular One J Pneuma Tonometer (pneumatonometer) [BioRad, Cambridge, Mass.]; it needs approximately 15 minutes to warm up. Turn on gas supply or air pump.
# 3. Hold probe vertically with the point tip down and press “calibration check” for “zero”.
# 4. Wipe the pneumatonometer probe with an alcohol swab, and inspect the tip membrane for holes.
# 5. Set the external calibration device (air or water manometer) to 25 mm Hg, place the pneumatonometer probe in the calibration device to ensure that it corresponded to 25 2 mm Hg.
# 6. Obtain a rabbit. Make sure the recording data sheets are at hand.
# 7. Gently restrain the rabbit via a commercial restrainer or a cotton towel. Measure the pupil diameter with the specialized ruler for each eye and record the values on the sheets provided. If the eyes are too dark to obtain a value by this method, a specialized penlight may be used. Obtain a pupil diameter measurement by shining the penlight on the cornea for one second.
# 8. Slide the upper eyelid up with the thumb and visually assess and score the degree of ocular surface redness. Record the value for each eye on the sheet provided.
# 9. Put one drop of 0.25% proparacaine Opthetic5 (50:50 mix of 0.5% proparacaine Opthetic5+Cellufresh5) on the surface of each eye. Wait one or more minutes for ophthetic to take effect.
# 10. Place the pnematonometer tip on one eye at the site where the curvature of the cornea is greatest. Let the probe shank travel to the black line, not the red line. Persist until a stable reading with the standard deviation below 1.0 is obtained. Repeat the procedure for the contralateral eye. Record the data. (Note: If the animal is upset by the restraint, the reading will be artificially high and cannot be used. Use gentle restraint).
# 11. At the end of the 0, 6, 24, 30, 48, 54, 72, 78 and 96 hour measurements, use an automatic pipette to apply 20 L of the test compound to the surface of the cornea of one eye. After the 102 hour measurements, the eyes will be washed out with Refresh5 and Prefrin5.
# 12. Give the animal a treat and return the animal to its cage.
# 13. Repeat steps 7 to 11 on the remaining animals in the group.
# The following general procedure for measuring the effects of the test compound employed in this study is as follows: a reading is conducted at 0, 2, 4, 6, 24, 26, 28, 30, 48, 50, 52, 54, 72, 74, 76, 78, 96, 98, 100, and 102 hours. The pneumatonometer is calibrated before use with a manometer and the probe tip is wiped with an alcohol swab. One drop of 0.25% proparacaine Opthetic5, a corneal anesthetic, is placed on the cornea. Allow sufficient time (approximately 1 minute) for it to anesthetize the cornea before placing the probe on the eye. The eye is gently opened by the person doing the tonometer reading. The probe is placed on the cornea at the point of greatest curvature and a stable reading is obtained. The probe is held parallel to the floor and perpendicular to the line of the rabbit's sight. The reading is repeated until a reasonable reading can be obtained. The piston should be between the red and black lines or at the black line on the probe.
# Values are mean S.E.M. n=8.
# monkeys = settings: average of 6 monkeys, 0.2%, scale S=0 to 4
# Experimental: The relative sedative effects of bromonidine-linoleic acid (compound 65) were compared to saline (compound 62) and brimonidine tartrate (compound 60). This study involved cross overs and a one-week wash out in between the administration of the various compounds.
# As done in a previous experiment, the following method was followed:
# 1. 6 trained monkeys were placed in chairs and allowed to acclimate for approximately 30 minutes.
# 2. Individual monkeys were brought into the “testing room” where they were allowed to adjust to the new environment for approximately 2 minutes. […] Sedation scores were recorded on an observation sheet.
# 3. The monkey was returned to the group of animals assigned to this study.
# 4. 2 baseline readings were done at T−0.5 and 0 hour. After the 0 hour reading one drop of the test compound was administered to the right eye.
# 5. Steps 2 & 3 were repeated at T=0.5, 1, 2, 3 and 4 hour.
# 6. Animals were monitored until they recover from effects of the drug.
# 5. Scoring of Sedation was based on the following scale:
# S=0 Monkey is quiet, but slightly active.
# S=1 Monkey is quiet, easy to handle for reading
# S=2 Monkey is quiet, relaxed but very low in activity
# S=3 Monkey is blinking eyes and yawning
# 8. The test compounds were coded: 62-Saline, […].
# 9. Test Compound Administration:
# The scoring was conducted for each animal for the different test compounds. The average results are shown on table 1.
compound,measurement,setting,value
Brc1c(NC2=NCCN2)ccc2nccnc12.CCCCC/C=C\C/C=C\CCCCCCCC(=O)O,percent change of Intra Ocular Pressure,Intra Ocular Pressure; 1 hr after administration at time 0,−10.4%
same,percent change of Intra Ocular Pressure,Intra Ocular Pressure; 2 hr after administration at time 0,−16.0%
same,percent change of Intra Ocular Pressure,Intra Ocular Pressure; 4 hr after administration at time 0,−09.5%
same,percent change of Intra Ocular Pressure,Intra Ocular Pressure; 6 hr after administration at time 0,−09.4%
same,time for which intraocular pressure in a rabbit's eye is reduced,[1]; after administration,at least 6 hours
same,duration of the effect of the complex on intraocular pressure,[1]; after administration at time 6 hr,less than 18 hrs
same,INTRAOCULAR PRESSURE,"[1]; time 0 hr (initial, dosed after reading)",25.8 mmHg
same,INTRAOCULAR PRESSURE,[1]; time 2 hr,17.1 mmHg
same,INTRAOCULAR PRESSURE,[1]; time 4 hr,21.1 mmHg
same,INTRAOCULAR PRESSURE,[1]; time 6 hr (dosed after reading),23.9 mmHg
same,INTRAOCULAR PRESSURE,[1]; time 24 hr (dosed after reading),25.6 mmHg
same,INTRAOCULAR PRESSURE,[1]; time 26 hr,19.9 mmHg
same,INTRAOCULAR PRESSURE,[1]; time 28 hr,22.9 mmHg
same,INTRAOCULAR PRESSURE,[1]; time 30 hr (dosed after reading),23.0 mmHg
same,INTRAOCULAR PRESSURE,[1]; time 48 hr (dosed after reading),26.5 mmHg
same,INTRAOCULAR PRESSURE,[1]; time 50 hr,20.4 mmHg
same,INTRAOCULAR PRESSURE,[1]; time 52 hr,23.4 mmHg
same,INTRAOCULAR PRESSURE,[1]; time 54 hr (dosed after reading),24.1 mmHg
same,INTRAOCULAR PRESSURE,[1]; time 72 hr (dosed after reading),26.8 mmHg
same,INTRAOCULAR PRESSURE,[1]; time 74 hr,21.1 mmHg
same,INTRAOCULAR PRESSURE,[1]; time 76 hr,23.9 mmHg
same,INTRAOCULAR PRESSURE,[1]; time 78 hr (dosed after reading),25.2 mmHg
same,INTRAOCULAR PRESSURE,[1]; time 96 hr (dosed after reading),27.9 mmHg
same,INTRAOCULAR PRESSURE,[1]; time 98 hr,20.1 mmHg
same,INTRAOCULAR PRESSURE,[1]; time 100 hr,23.9 mmHg
same,INTRAOCULAR PRESSURE,[1]; time 102 hr,25.3 mmHg
brimonidine tartrate [reference compound],SEDATION SCORE,"monkeys; time 0 hr (baseline, before dosing)",0.8
same,SEDATION SCORE,monkeys; time 0.5 hr after one drop to right eye,0.8
same,SEDATION SCORE,monkeys; time 1 hr after one drop to right eye,1.7
same,SEDATION SCORE,monkeys; time 2 hr after one drop to right eye,2.6
same,SEDATION SCORE,monkeys; time 3 hr after one drop to right eye,2.5
same,SEDATION SCORE,monkeys; time 4 hr after one drop to right eye,2.7
same,SEDATION SCORE,"monkeys; time −0.5 hr (baseline, before dosing)",0.7
